The values below come from patent US11174245B2, “Benzimidazole compounds and derivatives as EGFR inhibitors” (Boehringer Ingelheim International GmbH, priority 2018, dated 2021).

Molecules are shown by their SMILES.

The assay deals with EGFR del19 T790M C797S protein in Ba/F3 cells (Homo sapiens, UniProt P00533, C797S/DEL746-750/T790M). Kind of assay: pEGFR assay (AlphaScreen Surefire, EGFR Tyr1068 phosphorylation). In kind it is cell-based. The method, then: Transduced cells were selected using puromycin. Following selection, IL-3 was withdrawn and IL-3 independent cells cultured. p-EGFR Tyr1068 was determined using the AlphaScreen Surefire pEGF Receptor (Tyr1068) Assay (PerkinElmer, TGRERS). […] Subsequently, 60.000 cells/well in 60 μL were added. Cells were incubated with compound for 4 h at 37° C. […] The mixture was incubated at room temperature with shaking (700 rpm) for 20 min. After centrifugation, 4 μL of the lysate were transferred to Proxiplates. […] Plates were shaken for 1 min (1400 rpm) and incubated for 2 h at room temperature in the dark.
The results of the assay are provided as IC50 values (see table 12).
In general terms: Bead proximity is the source of the signal in Alpha formats.

Sequence of EGFR del19 T790M C797S protein in Ba/F3 cells (P00533 with tags, fused parts or gaps C797S/DEL746-750/T790M limits assumed): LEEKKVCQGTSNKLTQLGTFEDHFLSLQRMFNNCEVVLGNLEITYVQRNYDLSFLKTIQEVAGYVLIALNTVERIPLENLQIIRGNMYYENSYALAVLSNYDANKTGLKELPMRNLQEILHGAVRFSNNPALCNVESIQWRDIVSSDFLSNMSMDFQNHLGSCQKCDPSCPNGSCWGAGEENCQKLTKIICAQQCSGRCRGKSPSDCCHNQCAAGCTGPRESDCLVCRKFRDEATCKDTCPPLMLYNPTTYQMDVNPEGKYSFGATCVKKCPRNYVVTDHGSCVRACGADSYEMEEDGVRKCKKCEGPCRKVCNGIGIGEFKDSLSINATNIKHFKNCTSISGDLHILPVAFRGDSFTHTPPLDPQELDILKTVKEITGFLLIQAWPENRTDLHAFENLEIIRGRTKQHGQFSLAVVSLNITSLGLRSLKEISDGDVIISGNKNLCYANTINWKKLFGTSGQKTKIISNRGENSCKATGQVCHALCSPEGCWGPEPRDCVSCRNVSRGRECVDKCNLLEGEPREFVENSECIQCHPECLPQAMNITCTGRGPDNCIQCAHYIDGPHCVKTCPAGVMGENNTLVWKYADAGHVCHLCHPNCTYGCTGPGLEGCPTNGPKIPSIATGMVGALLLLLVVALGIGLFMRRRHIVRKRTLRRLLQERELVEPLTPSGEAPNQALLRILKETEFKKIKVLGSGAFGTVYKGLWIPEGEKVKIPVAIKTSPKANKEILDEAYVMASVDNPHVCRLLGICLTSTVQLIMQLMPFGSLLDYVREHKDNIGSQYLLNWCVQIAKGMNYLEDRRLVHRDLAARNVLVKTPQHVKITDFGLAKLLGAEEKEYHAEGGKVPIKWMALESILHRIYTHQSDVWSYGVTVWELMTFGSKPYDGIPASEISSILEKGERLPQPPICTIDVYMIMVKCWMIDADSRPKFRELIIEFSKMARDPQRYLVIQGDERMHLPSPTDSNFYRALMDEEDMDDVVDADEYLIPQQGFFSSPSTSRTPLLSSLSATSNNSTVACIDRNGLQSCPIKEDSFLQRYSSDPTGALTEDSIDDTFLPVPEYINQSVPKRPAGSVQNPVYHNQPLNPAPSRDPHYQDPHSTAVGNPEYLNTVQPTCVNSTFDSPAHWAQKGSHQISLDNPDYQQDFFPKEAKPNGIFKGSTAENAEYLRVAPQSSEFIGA

In the case of `COc1ccccc1-c1cc(C(=O)/N=c2\[nH]c3cc(CN4CCCC(OC)C4)ccc3n2[C@H]2CC[C@@H](O)CC2)ccn1` (some centres unmarked) [I-153], half-maximal inhibition (IC50) was put at 4 nM.
With `Cn1cc(-c2cc(C(=O)/N=c3\[nH]c4ccc(F)cc4n3CC(C)(C)O)ccn2)cn1` [I-195] the figure was 85 nM.
With `Cn1cc(-c2cc(C(=O)/N=c3\[nH]c4ccccc4n3[C@H]3CC[C@@H](O)CC3)cc(F)n2)cn1` [I-133] the figure was 1 nM; with `COc1ccccc1-c1cc(C(=O)/N=c2\[nH]c3ccccc3n2[C@H]2CCCC[C@H]2O)ccn1` [I-186], 23 nM; with `COc1cnccc1-c1cc(C(=O)/N=c2\[nH]c3ccccc3n2[C@H]2CC[C@@H](O)CC2)ccn1` [I-147], 4 nM.
As to `O=C(/N=c1\[nH]c2ccccc2n1[C@H]1CC[C@@H](O)CC1)c1ccnc(-c2cccc3ccnn23)c1` [I-89], it took 8 nM to reach half-maximal inhibition (IC50).
With `CCOC(=O)CCc1ccc2c(c1)[nH]/c(=N\C(=O)c1ccnc(-c3cnn(C)c3)c1)n2CC(C)(C)O` [I-193] the figure was 68 nM; with `CN(C)c1cccc(-c2cc(C(=O)/N=c3\[nH]c4ccccc4n3CC(C)(C)O)ccn2)c1` [I-94], 99 nM.
In the case of `O=C(/N=c1\[nH]c2ccccc2n1[C@H]1CC[C@@H](O)CC1)c1ccnc(-c2coc3ccccc23)c1` [I-174] it was 9 nM.
In the case of `Cc1ccc2c(c1)[nH]/c(=N\C(=O)c1ccnc(-c3cnn(C)c3)c1)n2[C@H]1CC[C@@H](O)CC1` [I-134] it was 1 nM.
`Cn1cc(-c2cc(C(=O)/N=c3\[nH]c4cc(C5CCNCC5)ccc4n3[C@H]3CC[C@@H](O)CC3)ccn2)cn1` [I-218]: the IC50 – broadly, the concentration at which inhibition is half-maximal – was 18 nM.
In the case of `Cn1cc(-c2cc(C(=O)/N=c3\[nH]c4cc(CCC(C)(C)O)ccc4n3CC(C)(C)O)ccn2)cn1` [I-178] it was 12 nM.
In the case of `COc1ccccc1-c1cc(C(=O)/N=c2\[nH]c3cc(CN4CC(OC)C4)ccc3n2[C@H]2CC[C@@H](O)CC2)ccn1` [I-140] it was 2 nM.
In the case of `CC(C)(O)Cn1/c(=N/C(=O)c2ccnc(-n3cnc4cccnc43)c2)[nH]c2ccccc21` [I-040] it was 3 nM; in that of `CC(C)(O)Cn1/c(=N/C(=O)c2ccnc(-c3cccc4ccnn34)c2)[nH]c2ccccc21` [I-90], 12 nM.
On to `Cn1cc(-c2cc(C(=O)/N=c3\[nH]c4cc(CN5CCCCC5)ccc4n3CC(C)(C)O)ccn2)cn1` [I-057], for which half-maximal inhibition (IC50) was put at 27 nM.
Turning to `COc1ccccc1-c1cc(C(=O)/N=c2\[nH]c3ccccc3n2[C@@H]2CCC[C@@H](O)C2)ccn1` [I-139], half-maximal inhibition (IC50) required 2 nM.
In the case of `COc1cnccc1-c1cc(C(=O)/N=c2\[nH]c3ccccc3n2CC(C)(C)O)ccn1` [I-164] it was 7 nM.
The molecule `Cn1cc(-c2cc(C(=O)/N=c3\[nH]c4cc(C5CCCCO5)ccc4n3CC(C)(C)O)ccn2)cn1` (centres unmarked) [I-165] returned an IC50 of 7 nM.
Consider `CN1CCN(c2ccc3[nH]/c(=N\C(=O)c4cc(F)nc(-c5cnn(C)c5)c4)n(C4CCCCC4)c3c2)CC1` [I-232], for which the IC50 was found to be 1 nM.
In the case of `COc1ccccc1-c1cc(C(=O)/N=c2\[nH]c3ccccc3n2[C@H]2CCC[C@@H](O)C2)ccn1` [I-127] it was 2 nM; in that of `COc1ncccc1-c1cc(C(=O)/N=c2\[nH]c3ccccc3n2CC(C)(C)O)ccn1` [I-92], 20 nM.
In turn, `Cn1cc(-c2cc(C(=O)/N=c3\[nH]c4ccccc4n3C3CCCOC3)ccn2)cn1` (centres unmarked) [I-043] came in with an IC50 of 6 nM.
In turn, `CN(C)c1ccc2c(c1)[nH]/c(=N\C(=O)c1ccnc(-c3cccnc3)c1)n2CC(C)(C)O` [I-79] came in with an IC50 of 42 nM.
In the case of `COCCN1CCC(c2ccc3c(c2)[nH]/c(=N\C(=O)c2ccnc(-c4cnn(C)c4)c2)n3CC(C)(C)O)CC1` [I-047], the IC50 is 3 nM.
With `Cc1ccccc1-c1cc(C(=O)/N=c2\[nH]c3ccccc3n2[C@H]2CC[C@@H](O)CC2)ccn1` [I-166] the figure was 7 nM; with `Cc1cc2c(cc1N(C)C)[nH]/c(=N\C(=O)c1ccnc(-c3cnn(C)c3)c1)n2CC(C)(C)O` [I-231], 63 nM; with `COc1ncccc1-c1cc(C(=O)/N=c2\[nH]c3ccccc3n2[C@H]2CC[C@@H](O)CC2)ccn1` [I-173], 9 nM.
For `CC(C)(O)Cn1/c(=N/C(=O)c2ccnc(-c3cccc4ccoc34)c2)[nH]c2ccccc21` [I-98], the IC50 worked out at 6 nM.
With `Cn1cnc2c(-c3cc(C(=O)/N=c4\[nH]c5ccccc5n4CC(C)(C)O)ccn3)cccc21` [I-95] the figure was 74 nM; with `Cn1cc(-c2cc(C(=O)/N=c3\[nH]c4ccccc4n3[C@H]3COCC[C@@H]3O)ccn2)cn1` [I-190], 33 nM; with `CN(C)CCOCCNc1ccc2c(c1)[nH]/c(=N\C(=O)c1ccnc(-c3cnn(C)c3)c1)n2CC(C)(C)O` [I-87], 81 nM.
With `CC(C)(O)Cn1/c(=N/C(=O)c2ccnc(-c3ccccn3)c2)[nH]c2ccccc21` [I-106] the figure was 97 nM.
With `C[C@@H]1CN(c2ccc3c(c2)[nH]/c(=N\C(=O)c2ccnc(-c4cnn(C)c4)c2)n3CC(C)(C)O)C[C@H](C)N1C` [I-73] the figure was 81 nM.
Consider `COc1ccccc1-c1cc(C(=O)/N=c2\[nH]c3cc(C4CCNCC4)ccc3n2[C@H]2CC[C@@H](O)CC2)ccn1` [I-120], for which the IC50 turned out to be 3 nM.
For `COc1ccccc1-c1cc(C(=O)/N=c2\[nH]c3cc(CN4CC[C@H](OC)C4)ccc3n2[C@H]2CC[C@@H](O)CC2)ccn1` [I-151], the IC50 was 4 nM.
For `Cc1cc2c(cc1N1CCN(C(C)C)CC1)[nH]/c(=N\C(=O)c1ccnc(-c3cnn(C)c3)c1)n2CC(C)(C)O` [I-69], the IC50 worked out at 26 nM.
The molecule `COc1ccccc1-c1cc(C(=O)/N=c2\[nH]c3ccccc3n2[C@H]2CCCOC2)ccn1` [I-123] had an IC50 of 2 nM.
Turning to `CC(C)(O)Cn1/c(=N/C(=O)c2ccnc(-c3cnc4cccnn34)c2)[nH]c2ccccc21` [I-041], half-maximal inhibition (IC50) required 1 nM.
With `Cn1cc(-c2cc(C(=O)/N=c3\[nH]c4ccccc4n3[C@@H]3CCCC[C@H]3O)ccn2)cn1` [I-154] the figure was 9 nM; with `Cn1cc(-c2cc(C(=O)/N=c3\[nH]c4cc(CN5CCOCC5)ccc4n3CC(C)(C)O)ccn2)cn1` [I-058], 93 nM; with `Cn1cc(-c2cc(C(=O)/N=c3\[nH]c4cc(N5CCOC(C)(C)C5)ccc4n3CC(C)(C)O)ccn2)cn1` [I-75], 54 nM.
In turn, `Cc1cc(C(=O)/N=c2\[nH]c3ccc(N4CCN(C)CC4)cc3n2[C@H]2CC[C@@H](O)CC2)cc(-c2cnn(C)c2)n1` [I-227] registered an IC50 of 2 nM.
With `Cn1cc(-c2cc(C(=O)/N=c3\[nH]c4cc(F)ccc4n3CC(C)(C)O)ccn2)cn1` [I-194] the figure was 74 nM; with `Cn1cc(-c2cc(C(=O)/N=c3\[nH]c4cc(C5CCOC5)ccc4n3CC(C)(C)O)ccn2)cn1` (centres unmarked) [I-86], 5 nM.
With `CNc1ccc2c(c1)[nH]/c(=N\C(=O)c1ccnc(-c3cnn(C)c3)c1)n2CC(C)(C)O` [I-172] the figure was 9 nM; with `CC(C)(O)Cn1/c(=N/C(=O)c2ccnc(-c3ccsc3)c2)[nH]c2ccccc21` [I-050], 24 nM.
Molecule `O=C(/N=c1\[nH]c2ccccc2n1[C@H]1CC[C@@H](O)CC1)c1ccnc(-c2ccc(F)cc2)c1` [I-177] had a half-inhibitory concentration (IC50) of 12 nM.
With `COc1ccccc1-c1cc(C(=O)/N=c2\[nH]c3ccccc3n2[C@H]2CCC[C@H](O)C2)ccn1` [I-170] the figure was 8 nM; with `O=C(/N=c1\[nH]c2ccccc2n1[C@H]1CC[C@@H](O)CC1)c1ccnc(-n2ccc3ccccc32)c1` [I-125], 11 nM.
With `COc1ccccc1-c1cc(C(=O)/N=c2\[nH]c3cc(C4CCN(C(C)=O)CC4)ccc3n2[C@H]2CC[C@@H](O)CC2)ccn1` [I-121] the figure was 2 nM.
With `Cn1cc(-c2cc(C(=O)/N=c3\[nH]c4cc(NC[C@@H]5CCCO5)ccc4n3CC(C)(C)O)ccn2)cn1` [I-81] the figure was 9 nM.
In turn, `CCc1ccc2[nH]/c(=N\C(=O)c3ccnc(-c4cccnc4)c3)n(CC(C)(C)O)c2c1` [I-84] showed an IC50 of 21 nM.
In the case of `Cn1cc(-c2cc(C(=O)/N=c3\[nH]c4cc(C5CCOCC5)ccc4n3CC(C)(C)O)ccn2)cn1` [I-85] it was 3 nM; in that of `O=C(/N=c1\[nH]c2ccccc2n1[C@H]1CC[C@@H](O)CC1)c1ccnc(-c2csc3ccccc23)c1` [I-96], 39 nM; in that of `Cn1cc(-c2cc(C(=O)/N=c3\[nH]c4cc(NCC5CCOCC5)ccc4n3CC(C)(C)O)ccn2)cn1` [I-68], 14 nM.
In the case of `CC(C)c1ccc2c(c1)[nH]/c(=N\C(=O)c1ccnc(-c3cnn(C)c3)c1)n2CC(C)(C)O` [I-062] it was 9 nM.
In turn, `Cn1cnc2c(-c3cc(C(=O)/N=c4\[nH]c5ccccc5n4[C@H]4CC[C@@H](O)CC4)ccn3)cccc21` [I-182] displayed an IC50 of 15 nM.
With `Cn1cc(-c2cc(C(=O)/N=c3\[nH]c4cc(NCCN5CCCC5)ccc4n3CC(C)(C)O)ccn2)cn1` [I-83] the figure was 14 nM; with `CC(C)(O)Cn1/c(=N/C(=O)c2ccnc(-c3cccc(O)c3)c2)[nH]c2ccccc21` [I-104], 12 nM; with `COC[C@H]1CCCN1Cc1ccc2c(c1)[nH]/c(=N\C(=O)c1ccnc(-c3ccccc3OC)c1)n2[C@H]1CC[C@@H](O)CC1` [I-152], 4 nM.
In the case of `Cn1ncc2c(-c3cc(C(=O)/N=c4\[nH]c5ccccc5n4CC(C)(C)O)ccn3)cccc21` [I-88] it was 11 nM.
In turn, `Cc1cc2c(cc1N1CCCCC1)[nH]/c(=N\C(=O)c1ccnc(-c3cnn(C)c3)c1)n2CC(C)(C)O` [I-70] came in with an IC50 of 94 nM.
In the case of `COc1ccccc1-c1cc(C(=O)/N=c2\[nH]c3cc(C4CCN(C)CC4)ccc3n2[C@H]2CC[C@@H](O)CC2)ccn1` [I-124], the IC50 stood at 2 nM.
Regarding `CC(C)(O)Cn1/c(=N/C(=O)c2ccnc(-c3cccnc3)c2)[nH]c2cc(N3CCCCC3)ccc21` [I-77], the IC50 was 76 nM.
